Legend:
Raji [1] = experiment: Induction of EBA-early antigen production in human Raji cells at 10^-7 M; type: cell-based; conditions: human gammaherpesvirus 4
[2] = Cytotoxicity against human Raji cells assessed as viability at 1 uM in presence of TPA; type: cell-based; conditions: read-out: Activity
[3] = Cytotoxicity against human Raji cells assessed as viability at 1 uM; type: cell-based; conditions: read-out: Activity
[4] = Cytotoxicity against human Raji cells assessed as viability at 10^-7 M in presence of TPA; type: cell-based; conditions: read-out: Activity
[5] = Cytotoxicity against human Raji cells assessed as viability at 10^-7 M; type: cell-based; conditions: read-out: Activity
Raji [6] = experiment: Inhibition of TPA-induced EBA-early antigen production in human Raji cells at 1 uM; type: cell-based; parameters: scale not given: the % may be the effect or the level left; conditions: human gammaherpesvirus 4
Raji [7] = experiment: Induction of EBA-early antigen production in human Raji cells at 1 uM; type: cell-based; conditions: human gammaherpesvirus 4
Raji [8] = experiment: Inhibition of TPA-induced EBA-early antigen production in human Raji cells at 10^-7 M; type: cell-based; parameters: scale not given: the % may be the effect or the level left; conditions: human gammaherpesvirus 4
MDA-MB-231 = experiment: Cytotoxicity against human MDA-MB-231 cells; type: functional
SF-295 = experiment: Cytotoxicity against human SF295 cells; type: functional
HCC 2998 = experiment: Cytotoxicity against human HCC2998 cells; type: functional
NCI-H460 = experiment: Cytotoxicity against human NCI-H460 cells; type: functional
A549 = experiment: Cytotoxicity against human A549 cells; type: functional
PC-3 = experiment: Cytotoxicity against human PC3 cells; type: functional
[9] = molecular target: Protein kinase C alpha type (Homo sapiens, UniProt P17252); experiment: Inhibition of [3H]PDBu binding to PKC alpha C1A peptide
[10] = molecular target: Protein kinase C beta type (Homo sapiens, UniProt P05771); experiment: Inhibition of [3H]PDBu binding to PKC beta C1A peptide
[11] = molecular target: Protein kinase C gamma type (Homo sapiens, UniProt P05129); experiment: Inhibition of [3H]PDBu binding to PKC gamma C1A peptide
[12] = molecular target: T1, Protein kinase C delta type (Homo sapiens, UniProt Q05655); experiment: Inhibition of [3H]PDBu binding to PKC delta C1A peptide
[13] = molecular target: T1, Protein kinase C delta type; experiment: Inhibition of [3H]PDBu binding to PKC delta C1B peptide
[14] = molecular target: T2, Protein kinase C epsilon type (Homo sapiens, UniProt Q02156); experiment: Inhibition of [3H]PDBu binding to PKCepsilon C1B peptide
T2 sequence (Q02156 whole entry): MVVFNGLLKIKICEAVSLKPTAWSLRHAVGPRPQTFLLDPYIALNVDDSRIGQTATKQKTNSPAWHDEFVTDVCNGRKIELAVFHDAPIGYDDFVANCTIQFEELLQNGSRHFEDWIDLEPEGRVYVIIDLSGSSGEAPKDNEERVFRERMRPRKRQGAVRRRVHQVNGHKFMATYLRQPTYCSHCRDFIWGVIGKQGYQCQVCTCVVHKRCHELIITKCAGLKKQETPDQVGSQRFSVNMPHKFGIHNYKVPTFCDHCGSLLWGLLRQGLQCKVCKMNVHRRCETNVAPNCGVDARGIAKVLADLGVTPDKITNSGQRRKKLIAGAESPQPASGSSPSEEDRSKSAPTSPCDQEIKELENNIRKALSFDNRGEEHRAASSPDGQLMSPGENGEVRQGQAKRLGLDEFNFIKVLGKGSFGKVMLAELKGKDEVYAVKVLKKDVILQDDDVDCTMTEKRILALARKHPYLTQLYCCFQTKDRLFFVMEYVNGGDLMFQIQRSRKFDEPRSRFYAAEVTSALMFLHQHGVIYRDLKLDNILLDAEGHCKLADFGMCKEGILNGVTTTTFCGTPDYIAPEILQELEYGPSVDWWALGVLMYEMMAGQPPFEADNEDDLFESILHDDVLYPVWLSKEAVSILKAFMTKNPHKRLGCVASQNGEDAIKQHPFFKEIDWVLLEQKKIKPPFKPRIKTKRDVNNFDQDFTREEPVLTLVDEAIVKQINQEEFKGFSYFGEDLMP

[15] = molecular target: Protein kinase C eta type (Homo sapiens, UniProt P24723); experiment: Inhibition of [3H]PDBu binding to PKCeta C1B peptide
[16] = molecular target: Protein kinase C theta type (Homo sapiens, UniProt Q04759); experiment: Inhibition of [3H]PDBu binding to PKCtheta C1B peptide
Sequence of Protein kinase C theta type (Q04759 whole entry): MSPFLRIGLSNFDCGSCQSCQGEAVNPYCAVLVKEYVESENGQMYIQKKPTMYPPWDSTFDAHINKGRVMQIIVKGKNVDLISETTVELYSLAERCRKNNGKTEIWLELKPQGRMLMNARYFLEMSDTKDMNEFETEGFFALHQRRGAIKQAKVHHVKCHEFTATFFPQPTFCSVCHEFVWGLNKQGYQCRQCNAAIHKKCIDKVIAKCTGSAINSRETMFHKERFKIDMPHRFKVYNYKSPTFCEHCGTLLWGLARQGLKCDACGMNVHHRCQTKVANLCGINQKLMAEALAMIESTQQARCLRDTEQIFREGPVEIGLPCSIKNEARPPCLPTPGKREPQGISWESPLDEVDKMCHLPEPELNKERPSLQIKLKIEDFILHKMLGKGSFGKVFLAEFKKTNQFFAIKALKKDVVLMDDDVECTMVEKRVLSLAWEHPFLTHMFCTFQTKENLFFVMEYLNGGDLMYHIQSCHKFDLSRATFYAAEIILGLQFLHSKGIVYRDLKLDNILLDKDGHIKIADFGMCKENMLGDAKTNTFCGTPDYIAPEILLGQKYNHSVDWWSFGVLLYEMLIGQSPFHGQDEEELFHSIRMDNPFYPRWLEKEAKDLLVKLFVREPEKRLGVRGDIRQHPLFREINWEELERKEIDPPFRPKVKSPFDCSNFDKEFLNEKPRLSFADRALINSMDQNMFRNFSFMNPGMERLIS

T1 sequence (Q05655 whole entry): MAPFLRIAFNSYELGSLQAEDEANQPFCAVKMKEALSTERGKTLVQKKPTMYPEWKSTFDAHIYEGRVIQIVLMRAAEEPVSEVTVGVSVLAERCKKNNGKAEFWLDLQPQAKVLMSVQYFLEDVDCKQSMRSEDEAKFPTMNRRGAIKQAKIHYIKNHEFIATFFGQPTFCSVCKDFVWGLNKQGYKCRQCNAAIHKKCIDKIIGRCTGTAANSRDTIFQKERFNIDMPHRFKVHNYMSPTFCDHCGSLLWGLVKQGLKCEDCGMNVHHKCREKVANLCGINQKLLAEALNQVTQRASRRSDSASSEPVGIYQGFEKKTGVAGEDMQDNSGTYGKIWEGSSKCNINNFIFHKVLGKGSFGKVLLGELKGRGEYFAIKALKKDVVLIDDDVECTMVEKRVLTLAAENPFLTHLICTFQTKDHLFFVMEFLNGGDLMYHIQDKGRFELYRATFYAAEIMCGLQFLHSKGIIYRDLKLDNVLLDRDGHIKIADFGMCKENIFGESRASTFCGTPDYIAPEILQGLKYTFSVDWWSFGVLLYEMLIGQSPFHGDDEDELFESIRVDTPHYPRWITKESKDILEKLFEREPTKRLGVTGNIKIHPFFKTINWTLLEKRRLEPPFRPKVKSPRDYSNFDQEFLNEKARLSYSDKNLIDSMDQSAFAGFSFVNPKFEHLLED
Sequence of Protein kinase C beta type (P05771 whole entry): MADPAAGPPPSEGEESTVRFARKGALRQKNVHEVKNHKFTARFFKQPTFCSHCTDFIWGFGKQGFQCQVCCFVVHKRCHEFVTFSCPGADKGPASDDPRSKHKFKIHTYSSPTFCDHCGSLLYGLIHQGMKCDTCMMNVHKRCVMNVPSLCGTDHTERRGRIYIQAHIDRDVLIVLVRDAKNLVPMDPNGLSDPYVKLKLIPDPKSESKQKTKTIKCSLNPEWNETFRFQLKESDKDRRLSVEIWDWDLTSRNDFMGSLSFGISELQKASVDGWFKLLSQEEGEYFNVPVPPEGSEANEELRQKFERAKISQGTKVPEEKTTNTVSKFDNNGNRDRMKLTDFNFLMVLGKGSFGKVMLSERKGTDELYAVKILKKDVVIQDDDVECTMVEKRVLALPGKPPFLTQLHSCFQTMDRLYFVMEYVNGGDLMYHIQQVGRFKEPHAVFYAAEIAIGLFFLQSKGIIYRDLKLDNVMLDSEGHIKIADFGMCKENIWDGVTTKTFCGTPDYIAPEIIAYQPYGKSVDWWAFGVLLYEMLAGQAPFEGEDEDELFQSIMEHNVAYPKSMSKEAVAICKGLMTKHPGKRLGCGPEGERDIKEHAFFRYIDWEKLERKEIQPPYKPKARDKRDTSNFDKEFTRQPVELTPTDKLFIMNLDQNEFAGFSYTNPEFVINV
Sequence of Protein kinase C eta type (P24723 whole entry): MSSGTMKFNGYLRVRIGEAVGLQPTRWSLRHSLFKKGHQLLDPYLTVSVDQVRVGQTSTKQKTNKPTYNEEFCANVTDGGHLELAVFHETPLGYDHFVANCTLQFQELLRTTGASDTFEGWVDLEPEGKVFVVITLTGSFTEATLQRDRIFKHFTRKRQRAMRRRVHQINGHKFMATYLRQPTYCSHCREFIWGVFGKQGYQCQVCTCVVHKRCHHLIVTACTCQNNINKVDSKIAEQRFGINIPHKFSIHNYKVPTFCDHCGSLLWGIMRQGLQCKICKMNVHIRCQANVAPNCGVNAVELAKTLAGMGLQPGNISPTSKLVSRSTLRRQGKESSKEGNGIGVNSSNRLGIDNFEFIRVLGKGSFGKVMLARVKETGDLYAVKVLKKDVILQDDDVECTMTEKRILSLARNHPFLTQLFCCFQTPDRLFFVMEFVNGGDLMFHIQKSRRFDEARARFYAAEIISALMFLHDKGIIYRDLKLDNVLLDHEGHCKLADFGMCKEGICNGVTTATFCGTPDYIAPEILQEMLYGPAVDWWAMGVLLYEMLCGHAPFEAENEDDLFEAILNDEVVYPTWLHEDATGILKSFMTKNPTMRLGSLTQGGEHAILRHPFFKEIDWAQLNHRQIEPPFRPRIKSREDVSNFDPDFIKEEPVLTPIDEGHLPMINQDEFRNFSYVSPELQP

CCC/C=C/C=C/C(=O)O[C@H]1/C(=C/C(=O)OC)C[C@H]2C[C@H]([C@@H](C)O)OC(=O)C[C@H](O)C[C@@H]3C[C@H](OC(C)=O)C(C)(C)[C@](O)(C[C@@H]4C/C(=C/C(=O)OC)C[C@H](/C=C/C(C)(C)[C@]1(O)O2)O4)O3 [BRYOSTATIN 1]
Activity (Raji [1]): 1.4% | viability at 1 µM [2]: 40% | viability at 1 µM [3]: 40% | viability at 0.1 µM [4]: 60% | viability at 0.1 µM [5]: 60% | Activity (Raji [6]): 5% | Activity (Raji [7]): 2% | Activity (Raji [8]): 6.8% | GI50 (MDA-MB-231): 6310 nM | GI50 (SF-295): 6310 nM | GI50 (HCC 2998): 5010 nM | GI50 (NCI-H460): 2510 nM | GI50 (A549): 6310 nM | GI50 (PC-3): 5010 nM

CO[C@@H](CC[C@H](C)[C@H]1O[C@@]23C[C@H](OC(=O)C[C@H]([C@@H](C)O)OC(=O)C[C@](O)(O2)[C@H](C)CC3(C)C)[C@@H]1C)c1cc(O)ccc1Br [APLYSIATOXIN]
Activity (Raji [1]): 18.4% | viability at 1 µM [2]: 40% | viability at 1 µM [3]: 40% | viability at 0.1 µM [4]: 50% | viability at 0.1 µM [5]: 50% | Activity (Raji [6]): 19.4% | Activity (Raji [7]): 20.1% | Activity (Raji [8]): 17.8% | Ki [9]: 0.4 nM | Ki [10]: 0.45 nM | Ki [11]: 0.63 nM | Ki [12]: 12 nM | Ki [13]: 0.41 nM | Ki [14]: 1.3 nM | Ki [15]: 0.36 nM | Ki [16]: 0.16 nM

CCCCCCCCCCCCCC(=O)O[C@@H]1[C@@H](C)[C@@]2(O)[C@@H](C=C(CO)C[C@]3(O)C(=O)C(C)=C[C@@H]23)[C@@H]2C(C)(C)[C@]12OC(C)=O [PHORBOL MYRISTATE ACETATE]
Activity (Raji [1]): 28.8% | viability at 1 µM [3]: 50% | viability at 0.1 µM [5]: 60% | Activity (Raji [7]): 30.2%

From ChEMBL document CHEMBL1255183, “Role of the phenolic hydroxyl group in the biological activities of simplified analogue of aplysiatoxin with antiproliferative activity” (Bioorg Med Chem Lett, 2010)
